In PubChem BioAssay AID2060614 (Molecular Pharmacology Branch, DTP, NCI, 2025):

Test system: 598228-144-R-J1-PDC complex spheroids, viability
Assay: Anticancer human tumor 598228-144-R-J1-PDC patient-derived serous endometrial adenocarcinoma cell line growth inhibition [CLK]
Conditions: for IC50: curve of first compound; for viability, T/C: stronger effect = lower value; active means viability on the fitted dose curve at most 10% of control; inactive means the rest
How it was run: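 Patient-derived tumor cells grown as complex spheroids with HUVEC endothelial cells and mesenchymal stem cells, treated with drug combinations. Concentrations descend in half-log steps from near clinical Cmax, or from 10 microM if Cmax unknown.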

[1] = second compound 0.0316 µM, first compound 0.00316 µM
[2] = second compound 0.0316 µM, first compound 0.01 µM
[3] = second compound 0.0316 µM, first compound 0.0316 µM
[4] = second compound 0.0316 µM, first compound 0.1 µM
[5] = second compound 0.0316 µM, first compound 0.316 µM
[6] = second compound 0.0316 µM, first compound 1 µM
[7] = second compound 0.1 µM, first compound 0.00316 µM
[8] = second compound 0.1 µM, first compound 0.01 µM
[9] = second compound 0.1 µM, first compound 0.0316 µM
[10] = second compound 0.1 µM, first compound 0.1 µM
[11] = second compound 0.1 µM, first compound 0.316 µM
[12] = second compound 0.1 µM, first compound 1 µM
[13] = second compound 0.316 µM, first compound 0.00316 µM
[14] = second compound 0.316 µM, first compound 0.01 µM
[15] = second compound 0.316 µM, first compound 0.0316 µM
[16] = second compound 0.316 µM, first compound 0.1 µM
[17] = second compound 0.316 µM, first compound 0.316 µM
[18] = second compound 0.316 µM, first compound 1 µM
[19] = second compound 1 µM, first compound 0.00316 µM
[20] = second compound 1 µM, first compound 0.01 µM
[21] = second compound 1 µM, first compound 0.0316 µM
[22] = second compound 1 µM, first compound 0.1 µM
[23] = second compound 1 µM, first compound 0.316 µM
[24] = second compound 1 µM, first compound 1 µM
[25] = second compound 3.16 µM, first compound 0.00316 µM
[26] = second compound 3.16 µM, first compound 0.01 µM
[27] = second compound 3.16 µM, first compound 0.0316 µM
[28] = second compound 3.16 µM, first compound 0.1 µM
[29] = second compound 3.16 µM, first compound 0.316 µM
[30] = second compound 3.16 µM, first compound 1 µM
[31] = second compound 10 µM, first compound 0.00316 µM
[32] = second compound 10 µM, first compound 0.01 µM
[33] = second compound 10 µM, first compound 0.0316 µM
[34] = second compound 10 µM, first compound 0.1 µM
[35] = second compound 10 µM, first compound 0.316 µM
[36] = second compound 10 µM, first compound 1 µM
[37] = second compound 0.0316 µM, first compound 3.16 µM
[38] = second compound 0.0316 µM, first compound 10 µM
[39] = second compound 0.1 µM, first compound 3.16 µM
[40] = second compound 0.1 µM, first compound 10 µM
[41] = second compound 0.316 µM, first compound 3.16 µM
[42] = second compound 0.316 µM, first compound 10 µM
[43] = second compound 1 µM, first compound 3.16 µM
[44] = second compound 1 µM, first compound 10 µM
[45] = second compound 3.16 µM, first compound 3.16 µM
[46] = second compound 3.16 µM, first compound 10 µM
[47] = second compound 10 µM, first compound 3.16 µM
[48] = second compound 10 µM, first compound 10 µM
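Further: spheroids exposed to compounds for seven days before readout.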
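Wherever viability, T/C is given: 100% = DMSO vehicle control wells.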

CCc1c2c(nc3ccc(O)cc13)-c1cc3c(c(=O)n1C2)COC(=O)[C@]3(O)CC + CNC(=O)c1ccc(Nc2nc(OC3CCCC3)c3c(-c4ccc5nc(C)oc5c4)c[nH]c3n2)c(OC)c1
active: viability, T/C [6] 6.44% | viability, T/C [24] 10.8% | viability, T/C [30] 8.19% | viability, T/C [36] 9.24%
100 nM: IC50 (second compound 0.316 µM)
54.2 nM: IC50 (second compound 3.16 µM)
61.5 nM: IC50 (second compound 1 µM)
56.4 nM: IC50 (second compound 0.1 µM)
inactive: viability, T/C [1] 91% | viability, T/C [2] 77.3% | viability, T/C [3] 65.9% | viability, T/C [4] 30.8% | viability, T/C [5] 14.4% | viability, T/C [7] 106% | viability, T/C [8] 84.5% | viability, T/C [9] 65.2% | viability, T/C [10] 38.5% | viability, T/C [11] 16.2% | viability, T/C [12] 14.9% | viability, T/C [13] 124% | viability, T/C [14] 111% | viability, T/C [15] 97% | viability, T/C [16] 48.3% | viability, T/C [17] 21.6% | viability, T/C [18] 10.5% | viability, T/C [19] 117% | viability, T/C [20] 95% | viability, T/C [21] 73.8% | viability, T/C [22] 33.2% | viability, T/C [23] 16.3% | viability, T/C [25] 108% | viability, T/C [26] 95.9% | viability, T/C [27] 63.9% | viability, T/C [28] 32.9% | viability, T/C [29] 17.3% | viability, T/C [31] 110% | viability, T/C [32] 85.9% | viability, T/C [33] 49.3% | viability, T/C [34] 27.5% | viability, T/C [35] 13.8%
33.2 nM: IC50 (second compound 10 µM)
51.5 nM: IC50 (second compound 0.0316 µM)

Cn1ncnc1[C@H]1c2n[nH]c(=O)c3cc(F)cc(c23)N[C@@H]1c1ccc(F)cc1 + CNC(=O)c1ccc(Nc2nc(OC3CCCC3)c3c(-c4ccc5nc(C)oc5c4)c[nH]c3n2)c(OC)c1
> 100 nM: IC50 (second compound 0.0316 µM) | IC50 (second compound 0.1 µM) | IC50 (second compound 0.316 µM) | IC50 (second compound 1 µM) | IC50 (second compound 3.16 µM) | IC50 (second compound 10 µM)
inactive: viability, T/C (second compound 0.0316 µM, first compound 0.000316 µM) 111% | viability, T/C (second compound 0.0316 µM, first compound 0.001 µM) 118% | viability, T/C [1] 122% | viability, T/C [2] 121% | viability, T/C [3] 114% | viability, T/C [4] 108% | viability, T/C (second compound 0.1 µM, first compound 0.000316 µM) 109% | viability, T/C (second compound 0.1 µM, first compound 0.001 µM) 122% | viability, T/C [7] 120% | viability, T/C [8] 121% | viability, T/C [9] 112% | viability, T/C [10] 96.8% | viability, T/C (second compound 0.316 µM, first compound 0.000316 µM) 114% | viability, T/C (second compound 0.316 µM, first compound 0.001 µM) 119% | viability, T/C [13] 92% | viability, T/C [14] 115% | viability, T/C [15] 118% | viability, T/C [16] 98.1% | viability, T/C (second compound 1 µM, first compound 0.000316 µM) 112% | viability, T/C (second compound 1 µM, first compound 0.001 µM) 109% | viability, T/C [19] 107% | viability, T/C [20] 117% | viability, T/C [21] 117% | viability, T/C [22] 99.3% | viability, T/C (second compound 3.16 µM, first compound 0.000316 µM) 101% | viability, T/C (second compound 3.16 µM, first compound 0.001 µM) 99.2% | viability, T/C [25] 99.7% | viability, T/C [26] 118% | viability, T/C [27] 104% | viability, T/C [28] 105% | viability, T/C (second compound 10 µM, first compound 0.000316 µM) 105% | viability, T/C (second compound 10 µM, first compound 0.001 µM) 115% | viability, T/C [31] 99.5% | viability, T/C [32] 105% | viability, T/C [33] 82.5% | viability, T/C [34] 128%

Nc1ccn(C2OC(CO)C(O)C2(F)F)c(=O)n1 (stereo not given) + CNC(=O)c1ccc(Nc2nc(OC3CCCC3)c3c(-c4ccc5nc(C)oc5c4)c[nH]c3n2)c(OC)c1
48.9 nM: IC50 (second compound 3.16 µM)
53.7 nM: IC50 (second compound 1 µM)
inactive: viability, T/C [3] 50.8% | viability, T/C [4] 36.9% | viability, T/C [5] 27.4% | viability, T/C [6] 34.7% | viability, T/C [37] 39% | viability, T/C [38] 34.4% | viability, T/C [9] 57.3% | viability, T/C [10] 33.6% | viability, T/C [11] 26.9% | viability, T/C [12] 36.3% | viability, T/C [39] 36.4% | viability, T/C [40] 34.7% | viability, T/C [15] 63.4% | viability, T/C [16] 34.5% | viability, T/C [17] 32.2% | viability, T/C [18] 29.6% | viability, T/C [41] 39.5% | viability, T/C [42] 37% | viability, T/C [21] 65.3% | viability, T/C [22] 32.6% | viability, T/C [23] 23.9% | viability, T/C [24] 29% | viability, T/C [43] 36.4% | viability, T/C [44] 28.7% | viability, T/C [27] 63% | viability, T/C [28] 24.2% | viability, T/C [29] 26.2% | viability, T/C [30] 24.3% | viability, T/C [45] 34.3% | viability, T/C [46] 33.6% | viability, T/C [33] 60.2% | viability, T/C [34] 26.9% | viability, T/C [35] 21.4% | viability, T/C [36] 22.6% | viability, T/C [47] 26.5% | viability, T/C [48] 31.5%
< 31.6 nM: IC50 (second compound 0.0316 µM) | IC50 (second compound 0.1 µM)
54.3 nM: IC50 (second compound 0.316 µM)
44.9 nM: IC50 (second compound 10 µM)

O=C(c1cc(Cc2n[nH]c(=O)c3ccccc23)ccc1F)N1CCN(C(=O)C2CC2)CC1 + CNC(=O)c1ccc(Nc2nc(OC3CCCC3)c3c(-c4ccc5nc(C)oc5c4)c[nH]c3n2)c(OC)c1
inactive: viability, T/C [3] 112% | viability, T/C [4] 125% | viability, T/C [5] 115% | viability, T/C [6] 129% | viability, T/C [37] 124% | viability, T/C [38] 113% | viability, T/C [9] 129% | viability, T/C [10] 127% | viability, T/C [11] 106% | viability, T/C [12] 129% | viability, T/C [39] 127% | viability, T/C [40] 105% | viability, T/C [15] 112% | viability, T/C [16] 130% | viability, T/C [17] 111% | viability, T/C [18] 118% | viability, T/C [41] 117% | viability, T/C [42] 113% | viability, T/C [21] 121% | viability, T/C [22] 101% | viability, T/C [23] 99% | viability, T/C [24] 115% | viability, T/C [43] 123% | viability, T/C [44] 94% | viability, T/C [27] 114% | viability, T/C [28] 102% | viability, T/C [29] 108% | viability, T/C [30] 97.6% | viability, T/C [45] 106% | viability, T/C [46] 117% | viability, T/C [33] 98.5% | viability, T/C [34] 97.8% | viability, T/C [35] 92.6% | viability, T/C [36] 121% | viability, T/C [47] 109% | viability, T/C [48] 104%
> 10000 nM: IC50 (second compound 0.0316 µM) | IC50 (second compound 0.1 µM) | IC50 (second compound 0.316 µM) | IC50 (second compound 1 µM) | IC50 (second compound 3.16 µM) | IC50 (second compound 10 µM)

O=c1[nH]cc(F)c(=O)[nH]1 + CNC(=O)c1ccc(Nc2nc(OC3CCCC3)c3c(-c4ccc5nc(C)oc5c4)c[nH]c3n2)c(OC)c1
inactive: viability, T/C [3] 99.7% | viability, T/C [4] 113% | viability, T/C [5] 107% | viability, T/C [6] 103% | viability, T/C [37] 99.9% | viability, T/C [38] 86.5% | viability, T/C [9] 116% | viability, T/C [10] 111% | viability, T/C [11] 128% | viability, T/C [12] 115% | viability, T/C [39] 101% | viability, T/C [40] 76.6% | viability, T/C [15] 108% | viability, T/C [16] 106% | viability, T/C [17] 110% | viability, T/C [18] 112% | viability, T/C [41] 96.2% | viability, T/C [42] 90% | viability, T/C [21] 102% | viability, T/C [22] 99.7% | viability, T/C [23] 94.5% | viability, T/C [24] 101% | viability, T/C [43] 93.4% | viability, T/C [44] 83.6% | viability, T/C [27] 95% | viability, T/C [28] 97% | viability, T/C [29] 97.1% | viability, T/C [30] 83.1% | viability, T/C [45] 94.5% | viability, T/C [46] 77.3% | viability, T/C [33] 87.8% | viability, T/C [34] 86.6% | viability, T/C [35] 89.8% | viability, T/C [36] 88.5% | viability, T/C [47] 77.8% | viability, T/C [48] 65.2%
> 10000 nM: IC50 (second compound 0.0316 µM) | IC50 (second compound 0.1 µM) | IC50 (second compound 0.316 µM) | IC50 (second compound 1 µM) | IC50 (second compound 3.16 µM) | IC50 (second compound 10 µM)
